In patent publication US20060276464A1, “Diarylsulfone sulfonamides and use thereof” (Wyeth, priority 2005, published 2006):
Where two headings read alike, the source gives them in different places.

Target: T1, SFRP-1 (Homo sapiens, UniProt Q8N474)
T1 sequence (Q8N474 32-314): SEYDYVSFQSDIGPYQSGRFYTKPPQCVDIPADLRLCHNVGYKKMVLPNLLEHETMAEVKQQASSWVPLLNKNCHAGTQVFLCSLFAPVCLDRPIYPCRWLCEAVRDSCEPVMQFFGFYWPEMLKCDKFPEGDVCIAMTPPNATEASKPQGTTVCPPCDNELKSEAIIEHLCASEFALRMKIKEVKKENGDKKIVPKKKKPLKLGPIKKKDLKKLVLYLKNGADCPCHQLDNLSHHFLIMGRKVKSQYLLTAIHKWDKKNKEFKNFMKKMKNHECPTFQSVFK
Assay: Cell-based assay for in vitro measurement of SFRP-1/SARP2 antagonist activity (U2OS cells co-transfected with 16x TCF-tk-Luciferase reporter, Wnt and hSFRP-1);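 also: U2OS cells co-transfected with a TCF-tk luciferase reporter, a Wnt vector, hSFRP-1 or empty vector and CMV-βgal, luciferase luminescence read in cell lysates alongside βgal activity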
Conditions: U2OS

[1] = read-out: Fold Induction with SFRP-1, Conc 15 μM, with SFRP-1, fold induction over SFRP-1 control, single dose
[2] = read-out: Fold Induction without SFRP-1, Conc 15 μM, without SFRP-1, single dose

fold induction at 15 µM [1]	fold induction at 15 µM [2]	SMILES
3	1	Cc1cc(C)c(S(=O)(=O)c2ccc(F)cc2)cc1S(=O)(=O)NC1CCOCC1 [Example 332, 5-[(4-fluorophenyl)sulfonyl]-2,4-dimethyl-N-(tetrahydro-2H-pyran-4-yl)benzenesulfonamide]
1.7	1	Cc1cc(C)c(S(=O)(=O)c2ccc(F)cc2)cc1S(=O)(=O)NCCC1CCOCC1 [Example 333, 5-[(4-fluorophenyl)sulfonyl]-2,4-dimethyl-N-[2-(tetrahydro-2H-pyran-4-yl)ethyl]benzenesulfonamide]
1.2	1	Cc1ccc(S(=O)(=O)c2ccc(C(C)C)cc2)cc1S(=O)(=O)NCCCn1ccnc1 [Example 338, N-[3-(1H-imidazol-1-yl)propyl]-5-[(4-isopropylphenyl)sulfonyl]-2-methylbenzenesulfonamide]
3.3	1.1	Cc1ccc(S(=O)(=O)c2cccc(Cl)c2)cc1S(=O)(=O)NCCCn1ccnc1 [Example 342, 5-[(3-chlorophenyl)sulfonyl]-N-[3-(1H-imidazol-1-yl)propyl]-2-methylbenzenesulfonamide]
2.8	1	Cc1cc(C)cc(S(=O)(=O)c2ccc(C)c(S(=O)(=O)NCCCn3ccnc3)c2)c1 [Example 343, 5-[(3,5-dimethylphenyl)sulfonyl]-N-[3-(1H-imidazol-1-yl)propyl]-2-methylbenzenesulfonamide]
1.6	1	Cc1ccc(S(=O)(=O)c2cc(Cl)ccc2Cl)cc1S(=O)(=O)NCCCn1ccnc1 [Example 345, 5-[(2,5-dichlorophenyl)sulfonyl]-N-[3-(1H-imidazol-1-yl)propyl]-2-methylbenzenesulfonamide]
2.9	1.1	Cc1cc(S(=O)(=O)c2ccccc2)cc(S(=O)(=O)NCCn2ccnc2)c1C [Example 347, N-[2-(1H-imidazol-1-yl)ethyl]-2,3-dimethyl-5-(phenylsulfonyl)benzenesulfonamide]
2.5	1.2	Cc1cc(S(=O)(=O)c2ccccc2)cc(S(=O)(=O)NCCCn2ccnc2)c1C [Example 348, N-[3-(1H-imidazol-1-yl)propyl]-2,3-dimethyl-5-(phenylsulfonyl)benzenesulfonamide]
1.5	1.3	Cc1cc(S(=O)(=O)c2ccccc2)cc(S(=O)(=O)NCCC2CCOCC2)c1C [Example 351, 2,3-dimethyl-5-(phenylsulfonyl)-N-[2-(tetrahydro-2H-pyran-4-yl)ethyl]benzenesulfonamide]
1.7	1	Cc1ccc(S(=O)(=O)c2ccc(NC3CCCCC3)cc2)cc1S(=O)(=O)NCCCn1ccnc1 [Example 352, 5-{[4-(cyclohexylamino)phenyl]sulfonyl}-N-[3-(1H-imidazol-1-yl)propyl]-2-methylbenzenesulfonamide]
3.4	0.9	Cc1ccc(S(=O)(=O)c2ccc(NC(C)c3ccccc3)cc2)cc1S(=O)(=O)NCCCn1ccnc1 (stereo not shown) [Example 355, N-[3-(1H-imidazol-1-yl)propyl]-2-methyl-5-({4-[(1-phenylethyl)amino]phenyl}sulfonyl)benzenesulfonamide]
2.1	1.1	Cc1ccc(S(=O)(=O)c2ccoc2C)cc1S(=O)(=O)NCCCn1ccnc1 [Example 363, N-[3-(1H-imidazol-1-yl)propyl]-2-methyl-5-[(2-methyl-3-furyl)sulfonyl]benzenesulfonamide]
2.4	1	Cc1ccc(S(=O)(=O)c2ccc(NC3CCOCC3)cc2)cc1S(=O)(=O)NCCCn1ccnc1 [Example 366, N-[3-(1H-imidazol-1-yl)propyl]-2-methyl-5-{[4-(tetrahydro-2H-pyran-4-ylamino)phenyl]sulfonyl}benzenesulfonamide]

The remaining lines, values behind:

SMILES	fold induction at 15 µM [1]	fold induction at 15 µM [2]
Cc1cc(C)c(S(=O)(=O)c2ccccc2)cc1S(=O)(=O)NCCCn1ccnc1 [Example 325, N-[3-(1H-imidazol-1-yl)propyl]-2,4-dimethyl-5-(phenylsulfonyl)benzenesulfonamide]	3	1.1
Cc1cc(C)c(S(=O)(=O)c2ccccc2)cc1S(=O)(=O)NCCc1ccccn1 [Example 326, 2,4-dimethyl-5-(phenylsulfonyl)-N-(2-pyridin-2-ylethyl)benzenesulfonamide]	2.4	1
Cc1cc(C)c(S(=O)(=O)c2ccccc2)cc1S(=O)(=O)NC1CCOCC1 [Example 327, 2,4-dimethyl-5-(phenylsulfonyl)-N-tetrahydro-2H-pyran-4-ylbenzenesulfonamide]	2.7	1
Cc1cc(C)c(S(=O)(=O)c2ccc(F)cc2)cc1S(=O)(=O)NCCCn1ccnc1 [Example 330, 5-[(4-fluorophenyl)sulfonyl]-N-[3-(1H-imidazol-1-yl)propyl]-2,4-dimethylbenzenesulfonamide]	3.2	1.1
Cc1cc(C)c(S(=O)(=O)c2ccc(F)cc2)cc1S(=O)(=O)NCCc1ccccn1 [Example 331, 5-[(4-fluorophenyl)sulfonyl]-2,4-dimethyl-N-(2-pyridin-2-ylethyl)benzenesulfonamide]	2.3	1.1
O=S(=O)(NCCc1ccccc1)c1cc(S(=O)(=O)c2ccccc2)ccc1Cl [Example 334, 2-chloro-N-(2-phenylethyl)-5-(phenylsulfonyl)benzenesulfonamide]	1.5	1.2
O=S(=O)(NCCN1CCOCC1)c1cc(S(=O)(=O)c2ccccc2)ccc1Cl [Example 335, 2-chloro-N-(2-morpholin-4-ylethyl)-5-(phenylsulfonyl)benzenesulfonamide]	2.2	1
O=S(=O)(NCCCn1ccnc1)c1cc(S(=O)(=O)c2ccccc2)ccc1Cl [Example 336, 2-chloro-N-[3-(1H-imidazol-1-yl)propyl]-5-(phenylsulfonyl)benzenesulfonamide]	2.8	1
O=S(=O)(NCCc1ccccn1)c1cc(S(=O)(=O)c2ccccc2)ccc1Cl [Example 337, 2-chloro-5-(phenylsulfonyl)-N-(2-pyridin-2-ylethyl)benzenesulfonamide]	2.6	1.1
Cc1ccc(S(=O)(=O)c2ccc3ccccc3c2)cc1S(=O)(=O)NCCCn1ccnc1 [Example 339, N-[3-(1H-imidazol-1-yl)propyl]-2-methyl-5-(2-naphthylsulfonyl)benzenesulfonamide]	2.6	1.1
Cc1ccc(S(=O)(=O)c2ccc(Cl)c(Cl)c2)cc1S(=O)(=O)NCCCn1ccnc1 [Example 340, 5-[(3,4-dichlorophenyl)sulfonyl]-N-[3-(1H-imidazol-1-yl)propyl]-2-methylbenzenesulfonamide]	2.5	1
CC(C)(O)Cc1ccc(S(=O)(=O)c2ccccc2)cc1S(=O)(=O)NCCc1ccccc1 [Example 341, 2-(2-hydroxy-2-methylpropyl)-N-(2-phenylethyl)-5-(phenylsulfonyl)benzenesulfonamide]	1.5	1.1
Cc1ccc([S+]([O-])c2ccccc2)cc1S(=O)(=O)NCCCn1ccnc1 (stereo not shown) [Example 346, N-[3-(1H-imidazol-1-yl)propyl]-2-methyl-5-(phenylsulfinyl)benzenesulfonamide]	2.4	1.3
Cc1cc(S(=O)(=O)c2ccccc2)cc(S(=O)(=O)NCCc2ccccn2)c1C [Example 349, 2,3-dimethyl-5-(phenylsulfonyl)-N-(2-pyridin-2-ylethyl)benzenesulfonamide]	2	1.2
Cc1cc(S(=O)(=O)c2ccccc2)cc(S(=O)(=O)NC2CCOCC2)c1C [Example 350, 2,3-dimethyl-5-(phenylsulfonyl)-N-(tetrahydro-2H-pyran-4-yl)benzenesulfonamide]	1.8	1.3
O=S(=O)(NC1CCOCC1)c1cc(S(=O)(=O)c2ccccc2)ccc1Cl [Example 361, 2-chloro-5-(phenylsulfonyl)-N-(tetrahydro-2H-pyran-4-yl)benzenesulfonamide]	2.3	0.9
Cc1ccc(S(=O)(=O)c2cccs2)cc1S(=O)(=O)NCCCn1ccnc1 [Example 362, N-[3-(1H-imidazol-1-yl)propyl]-2-methyl-5-(2-thienylsulfonyl)benzenesulfonamide]	2.4	1.1
Cc1ccc(S(=O)(=O)c2ccccc2)cc1S(=O)(=O)NC(=O)[C@@H](N)Cc1ccccc1 [Example 364, N-{[2-methyl-5-(phenylsulfonyl)phenyl]sulfonyl}-L-phenylalaninamide]	1.2	1
COC(=O)[C@@H](Cc1ccccc1)NS(=O)(=O)c1cc(S(=O)(=O)c2ccccc2)ccc1C [Example 365, methyl N-{[2-methyl-5-(phenylsulfonyl)phenyl]sulfonyl}-D-phenylalaninate]	1.3	1.1
